In ChEMBL document CHEMBL1149003, “Studies on cytotoxic constituents in pericarps of Mallotus japonicus, Part II” (J Nat Prod, 1986):
≈ marks a conversion by molar mass, not a printed value.

Columns and labels:
[1] = tested on: L5178Y; experiment: Cytotoxicity against mouse L5178Y cells; format: functional; settings: read-out: ED50 (the source's name)
[2] = tested on: KB; experiment: Cytotoxicity against human KB cells; format: functional; settings: read-out: ED50 (the source's name)
[3] = tested on: Mus musculus; experiment: Toxicity in ddY mouse xenografted with mouse solid Ehrlich carcinoma cells assessed as mortality at 20 mg/kg, ip qd for 3 to 8 days measured after 10 days; format: organism-based; set-up: dose 20 mg/kg, route intraperitoneal; settings: in vivo, 240 h
[4] = Antitumor activity against mouse EAC cells xenografted in ddY mouse assessed as median survival time at 7 mg/kg, ip qd for 2 to 8 days; format: functional, Ehrlich; settings: route intraperitoneal
[5] = Antitumor activity against mouse solid EAC cells xenografted in ddY mouse assessed as tumor weight at 20 mg/kg, ip qd for 3 to 8 days measured after 10 days; format: functional, Ehrlich; settings: route intraperitoneal
[6] = tested on: Mus musculus; experiment: Toxicity in ddY mouse xenografted with mouse solid Ehrlich carcinoma cells assessed as mortality at 7 mg/kg, ip qd for 3 to 8 days measured after 10 days; format: organism-based; set-up: dose 7 mg/kg, route intraperitoneal; settings: in vivo, 240 h
[7] = Antitumor activity against mouse solid EAC cells xenografted in ddY mouse at 7 mg/kg, ip qd for 3 to 8 days measured after 10 days relative to control; format: functional, Ehrlich; settings: route intraperitoneal
[8] = Antitumor activity against mouse EAC cells xenografted in ddY mouse assessed as median survival time at 20 mg/kg, ip qd for 2 to 8 days; format: functional, Ehrlich; settings: route intraperitoneal
[9] = Antitumor activity against mouse solid EAC cells xenografted in ddY mouse assessed as tumor weight at 7 mg/kg, ip qd for 3 to 8 days measured after 10 days; format: functional, Ehrlich; settings: route intraperitoneal
[10] = Antitumor activity against mouse solid EAC cells xenografted in ddY mouse at 20 mg/kg, ip qd for 3 to 8 days measured after 10 days relative to control; format: functional, Ehrlich; settings: route intraperitoneal

Row | SMILES | EC50 [1] [µg/mL] | EC50 [2] [µg/mL] | Activity [3] | MST [4] [days] | Activity [5] [g] | Activity [6] | T/C [7] [%] | MST [8] [days] | Activity [9] [g] | T/C [10] [%]
1 | C=C(C)C(O)Cc1c(O)c(Cc2c(O)c(C(C)=O)c(O)c(C)c2OC)c(O)c(C(C)=O)c1O (racemic) | 2.45 (≈ 5.32 µM) | 1.22 (≈ 2.65 µM) |  |  |  |  |  |  |  | 
2 | COc1c(C)c(O)c(C(C)=O)c(O)c1Cc1c(O)c2c(c(C(C)=O)c1O)OC(C)(C)C=C2 [MALLOTOCHROMENE] | 1.25 (≈ 2.83 µM) | 2.1 (≈ 4.75 µM) |  |  |  |  |  |  |  | 
3 | COc1c(C)c(O)c(C(C)=O)c(O)c1Cc1c(O)c2c(c(C(C)=O)c1O)OC(C)(C)C(O)C2 (racemic) [MALLOTOCHROMANOL] | > 100 | > 100 |  |  |  |  |  |  |  | 
4 | COc1c(C)c(O)c(C(C)=O)c(O)c1Cc1c(O)c(CC=C(C)C)c(O)c(C(C)=O)c1O [MALLOTOJAPONIN] | 0.74 (≈ 1.66 µM) | 0.58 (≈ 1.3 µM) | Non-toxic | 20 | 0.59 | Non-toxic | 78.1 | 14 | 0.93 | 49.5
5 | C=C(C)C(O)Cc1c(O)c(Cc2c(O)c(C(C)=O)c(O)c(C)c2OC)c(O)c(C(=O)CCC)c1O (racemic) [MALLOTOLERIN] | 0.82 (≈ 1.68 µM) | 0.95 (≈ 1.94 µM) |  |  |  |  |  |  |  | 
